Measurements published in patent US9663899B2, “Method for making lignocellulosic paper and paper product” (Solenis Technologies, L.P., priority 2015, dated 2017).

Tested on: Laccase NS51003
Assay: ABTS laccase assay for relative laccase activity
Type: biochemical, Aspergillus
Protocol: One unit of activity is equal to the micromole of the oxidized product from ABTS per min per mg protein at pH 4.0 to 6.0 at 23° C. in an acetate buffer. […] A diluted enzyme solution (1.5 milliliter (ml)) was added to a mixture of 1.5 ml ABTS (0.5 millimole (mM)) solution and 1.5 ml of sodium acetate buffer (1 mM) to initiate the oxidization reaction. After mixing, incubation was conducted at 23° C., while the change in absorbance per minute was measured at 420 nm. Two Aspergillus laccases were used both from Novozymes (Bagsvaerd, Denmark), to compare with the enzyme compositions. […] NS51002 alone worked best at pH 4-5 while NS51003 worked best at pH 5-6. The ABTS laccase assay was used to evaluate the effects of cationic fixative polymer, lipase and the laccase activator of the dry strength compositions on laccase activity. The same amount of laccase active in each composition was used in the assay. In Table III, the relative activity numbers were determined by normalizing the values based on that of laccase alone at 100%.

O=S(=O)([O-])[O-].[Cu+2] [copper sulfate] was tested, and the “effect on laccase activity” value (copper level 0.5 wt. %) was “lost some of its original activity”, the “effect on laccase activity” value (copper sulfate in the composition) was “not significant” and the “effect on laccase activity” value (dosage of copper sulfate higher than 0.5%) was “negatively affected”.
